The values below come from paper PMC3265452 (PLoS Neglected Tropical Diseases, 2012).

In general, inhibition refers to the change of the read-out against control, counted positive when it falls.

The target of one assay is AaDOP2 (Aedes aegypti, UniProt H6D5H2). The experiment in a line: AaDOP2 antagonist screen of the LOPAC1280 library (HEK-CRELuc-Aadop2 cells, luminescence). The class given is cell-based.
AaDOP2, sequence (H6D5H2 1-476): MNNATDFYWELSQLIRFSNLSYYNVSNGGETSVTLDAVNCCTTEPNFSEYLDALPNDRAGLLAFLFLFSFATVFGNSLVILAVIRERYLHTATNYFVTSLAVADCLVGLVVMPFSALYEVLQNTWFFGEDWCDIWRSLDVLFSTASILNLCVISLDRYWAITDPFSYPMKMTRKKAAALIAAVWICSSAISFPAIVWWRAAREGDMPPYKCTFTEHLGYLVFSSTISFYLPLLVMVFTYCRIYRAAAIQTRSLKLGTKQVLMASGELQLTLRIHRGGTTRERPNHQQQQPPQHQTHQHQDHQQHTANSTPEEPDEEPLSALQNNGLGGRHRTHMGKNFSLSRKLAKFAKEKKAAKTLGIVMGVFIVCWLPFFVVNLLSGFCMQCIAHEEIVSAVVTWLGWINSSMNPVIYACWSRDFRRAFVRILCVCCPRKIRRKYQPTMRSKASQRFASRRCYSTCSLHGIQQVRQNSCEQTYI
Conditions: not given
On to `C[N+](C)(C)CCCCCC[N+](C)(C)C.[Cl-].[Cl-]` [Compound 582, Hexamethonium dichloride], for which the “Compound effect (percent receptor signaling in presence of test compound, relative lux units relative to the SCH23390 control)” value came out at 94.

Regarding `COc1ccc(CCN)cc1O.Cl` [Compound 586, 4-Methoxy-3-hydroxyphenethylamine hydrochloride], the “Compound effect (percent receptor signaling in presence of test compound, relative lux units relative to the SCH23390 control)” value is given as 130.

On to `Nc1c2c(nc3ccccc13)CCCC2O.O=C(O)/C=C\C(=O)O` (centres unmarked) [Compound 587, Hydroxytacrine maleate], for which the “Compound effect (percent receptor signaling in presence of test compound, relative lux units relative to the SCH23390 control)” value was found to be 86.

As for `C[C@]12CCC(=O)C=C1CC[C@@H]1[C@@H]2[C@@H](O)C[C@@]2(C)[C@H]1CC[C@]2(O)C(=O)CO` [Compound 588, Hydrocortisone], the “Compound effect (percent receptor signaling in presence of test compound, relative lux units relative to the SCH23390 control)” value worked out at 78.

Consider `[Cl-].[Li+]` [Compound 589, Lithium Chloride], for which the “Compound effect (percent receptor signaling in presence of test compound, relative lux units relative to the SCH23390 control)” value worked out at 86.

`COC(=O)[C@H](NC(=O)c1cc(-c2ccccc2)nc2ccccc12)c1ccccc1` [Compound 591, SB 218795]: the “Compound effect (percent receptor signaling in presence of test compound, relative lux units relative to the SCH23390 control)” value is given as 98.

Turning to `O=c1cc(O)cc(/C=C/c2ccc(O)c(O)c2)o1` [Compound 592, Hispidin], the “Compound effect (percent receptor signaling in presence of test compound, relative lux units relative to the SCH23390 control)” value turned out to be 81.

Consider `CCCc1c(-c2ccc(O)cc2)nn(-c2ccc(O)cc2)c1-c1ccc(O)cc1` [Compound 594, 1,3,5-tris(4-hydroxyphenyl)-4-propyl-1H-pyrazole], for which the “Compound effect (percent receptor signaling in presence of test compound, relative lux units relative to the SCH23390 control)” value is 73.

As to `Oc1ccc(Cn2ccnc2S)cc1` [Compound 595, 1-(4-Hydroxybenzyl)imidazole-2-thiol], the “Compound effect (percent receptor signaling in presence of test compound, relative lux units relative to the SCH23390 control)” value is recorded as 63.

Consider `Cc1nccc2c1[nH]c1ccccc12` [Compound 597, Harmane], for which the “Compound effect (percent receptor signaling in presence of test compound, relative lux units relative to the SCH23390 control)” value is reported as 60.

As for `Cl.N[C@@H](Cc1cnc[nH]1)C(=O)O` [Compound 601, L-Histidine hydrochloride], the “Compound effect (percent receptor signaling in presence of test compound, relative lux units relative to the SCH23390 control)” value amounted to 91.

On to `CN1[C@@H]2CC[C@H]1C[C@@H](OC(=O)[C@H](CO)c1ccccc1)C2` [Compound 609, L-Hyoscyamine], for which the “Compound effect (percent receptor signaling in presence of test compound, relative lux units relative to the SCH23390 control)” value is on record as 75.

Regarding `Oc1ccc(O)cc1` [Compound 610, Hydroquinone], the “Compound effect (percent receptor signaling in presence of test compound, relative lux units relative to the SCH23390 control)” value was determined as 89.

With `S=C=Nc1ccc2oc(C3=NCCN3)cc2c1` [Compound 611, BU99006], the “Compound effect (percent receptor signaling in presence of test compound, relative lux units relative to the SCH23390 control)” value stood at 104.

As to `Cl.Cl.NNCc1cccc(O)c1` [Compound 612, 3-Hydroxybenzylhydrazine dihydrochloride], the “Compound effect (percent receptor signaling in presence of test compound, relative lux units relative to the SCH23390 control)” value is given as 104.

With `CCCc1c(OCCCOc2ccc(OCC(=O)O)cc2)ccc(C(C)=O)c1O` [Compound 614, L-165,041], the “Compound effect (percent receptor signaling in presence of test compound, relative lux units relative to the SCH23390 control)” value is 116.

With `N[C@@H](Cc1c[nH]c2ccc(O)cc12)C(=O)O` [Compound 615, 5-Hydroxy-L-tryptophan], the “Compound effect (percent receptor signaling in presence of test compound, relative lux units relative to the SCH23390 control)” value is listed as 126.

As for `NNC(=O)c1ccc(O)cc1` [Compound 617, 4-Hydroxybenzhydrazide], the “Compound effect (percent receptor signaling in presence of test compound, relative lux units relative to the SCH23390 control)” value stood at 78.

Take `C[N+]1(C)CCOC(O)(c2ccc(-c3ccc(C4(O)C[N+](C)(C)CCO4)cc3)cc2)C1` (centres unmarked) [Compound 618, Hemicholinium-3]: the “Compound effect (percent receptor signaling in presence of test compound, relative lux units relative to the SCH23390 control)” value is 106.

With `Br.CCCN(CCC)[C@@H]1CCc2cccc(O)c2C1` [Compound 624, R-(+)-8-Hydroxy-DPAT hydrobromide], the “Compound effect (percent receptor signaling in presence of test compound, relative lux units relative to the SCH23390 control)” value is listed as 89.

On to `COc1[nH]c2ccc(F)cc2c1C(=O)OCC1CCN(CCNS(C)(=O)=O)CC1.NS(=O)(=O)O` [Compound 626, GR 125487 sulfamate salt], for which the “Compound effect (percent receptor signaling in presence of test compound, relative lux units relative to the SCH23390 control)” value is on record as 87.

Turning to `Br.C[N+](C)(C)CCCCCNCC12CC3CC(CC(C3)C1)C2.[Br-]` [Compound 627, IEM-1460], the “Compound effect (percent receptor signaling in presence of test compound, relative lux units relative to the SCH23390 control)” value came out at 97.

`CC(C)C(=O)c1c(C(C)C)nn2ccccc12` [Compound 628, Ibudilast]: the “Compound effect (percent receptor signaling in presence of test compound, relative lux units relative to the SCH23390 control)” value was 136.

In the case of `Cl.O=C(O)Cc1c[nH]cn1` [Compound 629, Imidazole-4-acetic acid hydrochloride], the “Compound effect (percent receptor signaling in presence of test compound, relative lux units relative to the SCH23390 control)” value amounted to 122.

Take `O=C1C(SCCO)=C(SCCO)C(=O)c2ccccc21` [Compound 631, NSC 95397]: the “% of the SCH23390 effect (percent inhibition of receptor response relative to the SCH23390 control)” value is 83% and the “Compound effect (percent receptor signaling in presence of test compound, relative lux units relative to the SCH23390 control)” value is 17.

For the molecule `O=C1CCC(c2ccc(-n3ccnc3)cc2)=NN1` [Compound 632, Imazodan], the “Compound effect (percent receptor signaling in presence of test compound, relative lux units relative to the SCH23390 control)” value is on record as 92.

As for `NC(=O)CI` [Compound 633, Iodoacetamide], the “Compound effect (percent receptor signaling in presence of test compound, relative lux units relative to the SCH23390 control)” value is on record as 84.

As for `O=S(=O)(c1cccc2cnccc12)N1CCNCC1` [Compound 634, HA-100], the “Compound effect (percent receptor signaling in presence of test compound, relative lux units relative to the SCH23390 control)” value turned out to be 71.

Regarding `CC(C)[N+]1(C)[C@@H]2CC[C@H]1C[C@@H](OC(=O)C(CO)c1ccccc1)C2` (some centres unmarked) [Compound 635, Ipratropium bromide], the “Compound effect (percent receptor signaling in presence of test compound, relative lux units relative to the SCH23390 control)” value is 118.

For `CC(=O)[C@]1(O)Cc2c(O)c3c(c(O)c2[C@@H](O[C@H]2C[C@H](N)[C@H](O)[C@H](C)O2)C1)C(=O)c1ccccc1C3=O` [Compound 636, Idarubicin], the “Compound effect (percent receptor signaling in presence of test compound, relative lux units relative to the SCH23390 control)” value is 17.

For the molecule `COc1ccc2[nH]c(I)c(CCNC(C)=O)c2c1` [Compound 637, 2-Iodomelatonin], the “Compound effect (percent receptor signaling in presence of test compound, relative lux units relative to the SCH23390 control)” value was 113.

As to `CN([C@@H](Cc1ccc(OS(=O)(=O)c2cccc3cnccc23)cc1)C(=O)N1CCN(c2ccccc2)CC1)S(=O)(=O)c1cccc2cnccc12` [Compound 638, KN-62], the “Compound effect (percent receptor signaling in presence of test compound, relative lux units relative to the SCH23390 control)” value was found to be 104.

For `O=S(=O)(c1cccc2c(I)cccc12)N1CCCNCC1` [Compound 641, ML-7], the “Compound effect (percent receptor signaling in presence of test compound, relative lux units relative to the SCH23390 control)” value stood at 85.

The same assay, now with this note: 10 µM compound, 300 nM dopamine, 2 hr; hit = compound effect <20.
Consider `C[C@]12CCC(=O)C=C1CC[C@@H]1[C@@H]2[C@@H](O)C[C@@]2(C)[C@H]1CC[C@]2(O)C(=O)COC(=O)CCC(=O)[O-].[Na+]` [Compound 583, Hydrocortisone 21-hemisuccinate sodium], for which the “Compound effect (percent receptor signaling in presence of test compound, relative lux units relative to the SCH23390 control)” value was 136%.

Turning to `CC(=O)O.NC(=NCCC[C@H](N)C(=O)O)NO` [Compound 598, NG-Hydroxy-L-arginine acetate], the “Compound effect (percent receptor signaling in presence of test compound, relative lux units relative to the SCH23390 control)” value is 94%.

In the case of `CC1=C(/C=C/C(C)=C/C=C/C(C)=C/C(=O)Nc2ccc(O)cc2)C(C)(C)CCC1` [Compound 599, Retinoic acid p-hydroxyanilide], the “Compound effect (percent receptor signaling in presence of test compound, relative lux units relative to the SCH23390 control)” value worked out at 88%.

For `CCCCC#Cc1nc(N)c2ncn([C@@H]3O[C@H](C(=O)NCC)[C@@H](O)[C@H]3O)c2n1` [Compound 600, HE-NECA], the “Compound effect (percent receptor signaling in presence of test compound, relative lux units relative to the SCH23390 control)” value amounted to 99%.

`NC(=O)NO` [Compound 604, Hydroxyurea]: the “Compound effect (percent receptor signaling in presence of test compound, relative lux units relative to the SCH23390 control)” value is 122%.

With `COc1cc(C(O)CO)ccc1OS(=O)(=O)[O-].[K+]` (centres unmarked) [Compound 607, MHPG sulfate potassium], the “Compound effect (percent receptor signaling in presence of test compound, relative lux units relative to the SCH23390 control)” value came out at 131%.

Consider `O=C(O)Cc1c[nH]c2ccc(O)cc12` [Compound 608, 5-Hydroxyindolacetic acid], for which the “Compound effect (percent receptor signaling in presence of test compound, relative lux units relative to the SCH23390 control)” value came to 85%.

As for `Cl.NO` [Compound 616, Hydroxylamine hydrochloride], the “Compound effect (percent receptor signaling in presence of test compound, relative lux units relative to the SCH23390 control)” value was 118%.

For `Cl.NC(N)=NCCNS(=O)(=O)c1cccc2cnccc12` [Compound 619, HA-1004 hydrochloride], the “Compound effect (percent receptor signaling in presence of test compound, relative lux units relative to the SCH23390 control)” value is 89%.

As to `CC1CNCCN1S(=O)(=O)c1cccc2cnccc12.Cl.Cl` (centres unmarked) [Compound 620, H-7 dihydrochloride], the “Compound effect (percent receptor signaling in presence of test compound, relative lux units relative to the SCH23390 control)” value is 38%.

As for `Cl.O[Si](CCCN1CCCCC1)(c1ccc(F)cc1)C1CCCCC1` (centres unmarked) [Compound 621, Hexahydro-sila-difenidol hydrochloride, p-fluoro analog], the “Compound effect (percent receptor signaling in presence of test compound, relative lux units relative to the SCH23390 control)” value is recorded as 73%.

`CCCCCC(O)CCCC(=O)O.[Na]` (centres unmarked) [Compound 623, 5-hydroxydecanoic acid sodium]: the “Compound effect (percent receptor signaling in presence of test compound, relative lux units relative to the SCH23390 control)” value is recorded as 126%.

Regarding `Br.CCCN(CCC)[C@@H]1CCc2ccc(O)cc2C1` [Compound 625, R-(+)-7-Hydroxy-DPAT hydrobromide], the “Compound effect (percent receptor signaling in presence of test compound, relative lux units relative to the SCH23390 control)” value came to 85%.

With `O=C1Nc2ccccc2/C1=C1/Nc2ccccc2/C1=N\O` [Compound 630, Indirubin-3'-oxime], the “Compound effect (percent receptor signaling in presence of test compound, relative lux units relative to the SCH23390 control)” value amounted to 23%.

Regarding `CC(C(O)c1ccc(O)cc1)N1CCC(Cc2ccccc2)CC1.CC(C(O)c1ccc(O)cc1)N1CCC(Cc2ccccc2)CC1.O=C(O)C(O)C(O)C(=O)O` (centres unmarked) [Compound 643, Ifenprodil tartrate], the “Compound effect (percent receptor signaling in presence of test compound, relative lux units relative to the SCH23390 control)” value was 64%.

The same assay, now with this note: read-out: % of the SCH23390 effect (percent inhibition of receptor response relative to the SCH23390 control).
As to `CC(=O)[C@]1(O)Cc2c(O)c3c(c(O)c2[C@@H](O[C@H]2C[C@H](N)[C@H](O)[C@H](C)O2)C1)C(=O)c1ccccc1C3=O` [Compound 636, Idarubicin], the inhibition at 10 µM was 83%.
